The pKi is the Ki on a negative log10 scale, so that one unit is a factor of ten.

pKi: −log10 of the molar value. Bounds are passed on as bounds.

For six compounds, Ki results are on record in patent US7652153B2, “Caspase inhibitors and uses thereof” (Vertex Pharmaceuticals Incorporated, priority 2004, dated 2010).

The target of one assay is T1, caspase-1 (Homo sapiens, UniProt P29466).
T1 sequence (P29466 120-297 limits assumed): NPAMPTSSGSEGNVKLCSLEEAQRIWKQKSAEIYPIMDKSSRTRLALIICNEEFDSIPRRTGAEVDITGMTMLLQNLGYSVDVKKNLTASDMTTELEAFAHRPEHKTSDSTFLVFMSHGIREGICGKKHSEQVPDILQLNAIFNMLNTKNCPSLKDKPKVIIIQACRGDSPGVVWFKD
T1 sequence (P29466 317-404 limits assumed): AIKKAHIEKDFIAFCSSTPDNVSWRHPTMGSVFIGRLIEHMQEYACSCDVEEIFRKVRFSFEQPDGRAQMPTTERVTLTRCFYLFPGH
As to the kind of experiment: Caspase-1 enzyme inhibition (Ki, method of Margolin et al.). Format: biochemical. To be noted: Suc-YVAD-pNA substrate 80 μM, 37° C., pH 7.5; read-out: Ki C1. The procedure, abridged:
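Enzyme (0.5-40 nM active, by active-site titration) preincubated 15 min at 37° C with inhibitor in 10 mM Tris pH 7.5, 1 mM DTT, 0.1% CHAPS. Reaction started with Suc-YVAD-pNA (80 μM final), rate followed by absorbance at 405 nm at 37° C. Ki from Morrison tight-binding fit for competitive inhibitors.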

The target of another assay is caspase-8 (Homo sapiens, UniProt Q14790). The assay can be described thus: Caspase-8 enzyme inhibition (Ki, method of Margolin et al.). The class given is biochemical. To be noted: Ac-DEVD-pNA substrate 80 μM, 37° C., pH 7.5; read-out: Ki C8. The method, boiled down: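 Caspase (0.5-40 nM active, by active-site titration) preincubated with inhibitor 15 min at 37° C in 10 mM Tris pH 7.5, 1 mM DTT, 0.1% CHAPS. Reaction started with Ac-DEVD-pNA (80 μM final), rate followed by absorbance at 405 nm; Ki from Morrison tight-binding fit for competitive inhibitors.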
caspase-8, sequence (Q14790 217-374 limits assumed, species assumed): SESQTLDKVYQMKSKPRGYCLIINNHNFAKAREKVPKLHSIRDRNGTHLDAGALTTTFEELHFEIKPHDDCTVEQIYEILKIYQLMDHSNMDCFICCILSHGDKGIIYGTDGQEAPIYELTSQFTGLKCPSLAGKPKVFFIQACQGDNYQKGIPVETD
caspase-8, sequence (Q14790 385-479 limits assumed, species assumed): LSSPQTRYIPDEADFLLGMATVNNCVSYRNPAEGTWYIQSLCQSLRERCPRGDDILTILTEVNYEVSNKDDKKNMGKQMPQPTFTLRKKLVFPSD

Turning to `COCc1ccc(C(=O)N[C@H](C(=O)N2CCC[C@H]2C(=O)N[C@H](C=O)CC(=O)O)C(C)(C)C)c(Cl)c1` [II-48, (S,S,S)-(3S)-({1-[(2S)-(2-chloro-4-methoxymethyl-benzoylamino)-3,3-dimethyl-butyryl]-pyrrolidine-(2S)-carbonyl}-amino)-4-oxo-butyric acid], the pKi on caspase-1 and on caspase-8 was over 8.00 throughout.
Turning to `CC(C)C(=O)Nc1ccc(C(=O)N[C@H](C(=O)N2CCC[C@H]2C(=O)N[C@H](C=O)CC(=O)O)C(C)(C)C)c(Cl)c1` [II-49, (S,S,S)-(3S)-({1-[(2S)-(2-chloro-4-isobutyrylamido-benzoylamino)-3,3-dimethyl-butyryl]-pyrrolidine-(2S)-carbonyl}-amino)-4-oxo-butyric acid], the pKi on caspase-1 and on caspase-8 was over 8.00 in each case.
For the compound `CC(=O)Nc1ccc(C(=O)N[C@H](C(=O)N2CCC[C@H]2C(=O)N[C@H](C=O)CC(=O)O)C2CCCCC2)c(Cl)c1` [II-50, (S,S,S)-(3S)-({1-[(2S)-(2-chloro-4-acetamido-benzoylamino)-3-cyclohexyl]-pyrrolidine-(2S)-carbonyl}-amino)-4-oxo-butyric acid], the pKi at caspase-1 is over 8.00; on caspase-8 it was 7.52 to 7.68.
For `COC(=O)Nc1ccc(C(=O)N[C@H](C(=O)N2CCC[C@H]2C(=O)N[C@H](C=O)CC(=O)O)C(C)(C)C)c(Cl)c1` [II-51, (S,S,S)-(3S)-({1-[(2S)-(2-chloro-4-methoxycarbonylamino-benzoylamino)-3,3-dimethyl-butyryl]-pyrrolidine-(2S)-carbonyl}-amino)-4-oxo-butyric acid], the pKi at caspase-1 and at caspase-8 was over 8.00 each time.
`CC(C)(C)[C@H](NC(=O)c1cccc(Oc2ccccc2)c1Cl)C(=O)N1CCC[C@H]1C(=O)N[C@H](C=O)CC(=O)O` [II-52, (S,S,S)-(3S)-({1-[(2S)-(2-chloro-3-phenoxy-benzoylamino)-3,3-dimethyl-butyryl]-pyrrolidine-(2S)-carbonyl}-amino)-4-oxo-butyric acid]: the negative-log Ki (pKi) on caspase-1 and at caspase-8 was over 8.00 in each case.
Turning to `CC(C)[C@H](NC(=O)c1c(N)cccc1Cl)C(=O)N1CCC[C@H]1C(=O)N[C@H](C=O)CC(=O)O` [II-53, (S,S,S)-(3S)-({1-[(2S)-(2-chloro-6-amino-benzoylamino)-3-methyl-butyryl]-pyrrolidine-(2S)-carbonyl}-amino)-4-oxo-butyric acid], the negative logarithm of the Ki (pKi) at caspase-1 was over 8.00; at caspase-8, 7.52 to 7.68.
